In patent US20210330756A1, “Acetylation of Miro1” (University of South Carolina, priority 2020, published 2021):

Assays:
Miro1 = assay: Anti-Ac-Lys immunoprecipitation of Miro1 from DRG lysates; format: cell-based, rat
Protocol: Protein acetylome profiles from nonneuronal cells have reported acetylation of Miro1/2 and Milton 1/2 but not of Syntaphilin (Choudhary et al., 2009; Lundby et al., 2012; Wagner et al., 2012).
DRG neurons were lysed in 100 mM KCl, 5 mM MgCl2, 10 mM Hepes, pH 7.4, 1 mM DTT, and 0.5% NP-40 supplemented with lx protease inhibitor cocktail (Roche). The lysates were passed through a 25-gauge needle five times and cleared by centrifugation at 12,000 g for […]. Equal amounts of the supernatants were then incubated with primary antibodies overnight, and immunocomplexes were precipitated with Protein G-Dynabeads (Invitrogen) for an additional 2 h at 4° C. with rotation. A cocktail of rabbit and mouse anti-Ac-Lys antibodies (5 μg each; Cell Signaling; 9441 and 9681) was used directly for analyses of Myc-Miro1 transfected cultures by immunoprecipitation. For analysis of endogenous Miro1 acetylation, the anti-Lys antibody cocktail (5 μg of each) was directly cross-linked to 5 mg of M-270 epoxy beads (Dynabeads) using the Dynabeads antibody coupling kit according to the manufacturer's instructions (Life Technologies; 14311D). […]
For immunoblotting, protein lysates or immunoprecipitates were denatured by boiling in Laemmli sample buffer, fractionated by SDS-PAGE, and transferred to nitrocellulose membranes. […] Signals were detected using ECL Prime (GE Healthcare) after extensive washing.

Ac-histone H4 = assay: Immunoblotting for Ac-histone H4 in adult DRG neurons (HDAC specificity); format: cell-based, rat
Protocol: We tested for this specificity in the adult DRG neurons from above by immunoblotting. […] (A) Number of mitochondria in growth cones after exposing DRG cultures to 10 μM TubA versus vehicle (control) for 1 h is shown as average fold-change in number of mitochondria per growth cone±SEM (n=13 axons across three culture preparations; *, P≤0.05 by one-way ANOVA with Bonferroni post hoc analysis). (B) Representative EMs of Remak bundles (arrowheads) in naive Sciatic nerve and nerves after 2 h vehicle (DMSO) or TubA injection are shown. Arrows indicate mitochondria in the unmyelinated axons. Note that a Schwann cell nucleus (asterisk) is seen in the Remak bundle for DMSO image but not the other two micrographs (scale bar=3 μm). (C) Quantification of number of mitochondria per unmyelinated axon from EM images as in B is shown as average±SEM (n≥5; *****, P≤0.0001 by one-way ANOVA with Bonferroni post hoc analysis). (D-F) Quantification for indicated parameters for mitochondrial transport in sciatic nerve in vivo using tetramethylrhodamine, ethyl ester, perchlorate to visualize mitochondria is shown.
For immunoblotting, protein lysates or immunoprecipitates were denatured by boiling in Laemmli sample buffer, fractionated by SDS-PAGE, and transferred to nitrocellulose membranes. Blots were blocked for 1 h at room temperature with 5% nonfat dry milk in TBS with 0.1% Tween 20 (TBST). Primary antibodies diluted in 5% BSA in TBST were added to the membranes and incubated overnight at 4° C. with rocking. Primary antibodies consisted of rabbit anti-Myc (1:2,000; Cell Signaling; 71D10), rabbit anti-RHOT1 antibody (1:1,000; Aviva Systems Biology; ARP44817 P050), rabbit anti-HDAC6 antibody (1:2,000; Cell Signaling; 7558), rabbit anti-ERK1 (1:5,000; Abcam; ab32537), and affinity-purified custom rabbit anti-Miro1-AcK105 (1:2,500; Twiss laboratory, see above) antibodies. For the anti-Miro1-AcK105 antibody, preimmune and test-bleed sera were used at 1:1,000 dilutions to initially evaluate for specificity. After washing in TBST, blots were incubated with HRP-conjugated anti-rabbit IgG antibodies (1:5,000; Jackson Immunoresearch) diluted in blocking buffer for 1 h at room temperature. Signals were detected using ECL Prime (GE Healthcare) after extensive washing.

CN1CCc2c(c3ccccc3n2Cc2ccc(C(=O)NO)cc2)C1 [TubA, tubastatin]
pull-down efficiency of Miro1 with anti-Ac-Lys antibody cocktail (Miro1; 10 μM TubA for 4 h, n=4): 14.1±2.2% | anti-Ac-Lys immunoprecipitated Miro1 band (Miro1; treatment with TubA): modestly increasing | Ac-histone H4 levels (Ac-histone H4; 1 μM): no change in Ac-histone H4 levels | Ac-histone H4 levels (Ac-histone H4; 10 μM): no change in Ac-histone H4 levels | Ac-histone H4 levels (Ac-histone H4; 100 μM): only modest increase in Ac-histone H4
